Measurements: patent publication US11603391B2, “CATH2 derivatives” (Universiteit Utrecht Holding B.V., priority 2014, dated 2023)
No end group written: not given here.

Columns and labels:
HD11 cells [1] = assay: Uptake of Alexa-Fluor 488 labeled ODN-2006 by HD11 cells (flow cytometry); assay type: cell-based, chicken; conditions: 5 μM peptide; 2.5 nM Alexa-Fluor 488 labeled ODN-2006; 4 h
Experimental: (§1) FIG. 13A-13B—CMAP27 derived peptides enhance DNA uptake and DNA-induced activation. A) HD11 cells were stimulated during 4 h with 2.5 nM Alexa-Fluor 488 labeled ODN-2006 in the absence and presence of CMAP27 derived peptides (5 μM), after which DNA uptake was analyzed by flow cytometry. B) Supernatants of HD11 cells stimulated for longer time (17 h) under these same conditions were collected and used for determination of nitric oxide production using the Griess assay. Data represents means±SEM from 3-4 independent experiments.
(§2) To study effects of peptides on the uptake of DNA, HD11 cells were seeded 3×10^5 cells in 24-wells plates, stimulated during 4 h with 2.5 nM Alexa-Fluor 488 labeled ODN-2006 in the absence and presence of CMAP27 derived peptides (5 μM), after which DNA uptake was analyzed by flow cytometry. Activation of HD11 cells was examined by collecting supernatants after 17 h under the same conditions and determination of nitric oxide production.

HD11 cells [2] = assay: Neutralization of LPS-induced nitric oxide production in HD11 cells (Griess assay); assay type: cell-based, chicken; conditions: 20 μM peptide pre-incubated with 50 ng/ml LPS; 24 h
Experimental: (§3) FIG. 11A-11B—Neutralization of lipopolysaccharide-induced interleukin-1β induction and nitric oxide production in HD11 cells by CMAP27 derived peptides. HD11 cells were seeded in 96 wells tissue culture treated plates (2×10^5 cell/mL) in RPMI-1640/10% FCS. Final concentrations of 50 ng/ml LPS were pre-incubated with or without 20 μM peptide for 30 min at 37° C. (5% CO2), applied to the cells and incubated for 4 h and 24 h. A) Transcription levels of interleukin-1 were determined by real time PCR (4 h only). B) Supernatants were collected for the determination of nitric oxide production (24 h incubations only) using the Griess assay. Significance levels: *P<0.05, **P<0.01, ***P<0.001. Data represents means±SEM from 3-4 independent experiments.
as §3, with “FIG. 12A-12B—Substitution” for “FIG. 11A-11B—Neutralization”, “of phenylalanine residues by tryptophan enhances the” for “of lipopolysaccharide-induced interleukin-1β induction and nitric oxide production”, “in vitro LPS neutralization capacity of” for “in HD11 cells by”, “h or” for “h and”
(§4) HD11 cells were seeded in 96 wells tissue culture treated plates (2×10^5 cell/mL) in RPMI-1640/10% FCS. Final concentrations of 50 ng/ml Salmonella minnesota LPS were pre-incubated with or without 20 μM peptide for 30 min at 37° C. (5% CO2), applied to the cells and incubated for 4 h and 24 h. A) Transcription levels of interleukin-1 were determined by real time PCR (4 h only). B) Supernatants were collected for the determination of nitric oxide production (24 h incubations only) using the Griess assay.

J774.A1 cells = assay: Inhibition of APEC O78-induced TNFα production by macrophages (ELISA); assay type: cell-based, murine; conditions: 5 μM peptide, 2 h, DMEM/10% FCS; for inhibition of TNFα production induced by heat-killed bacteria: 3×10^5 CFU/ml heat-killed APEC O78; for inhibition of TNFα production induced by live bacteria: 3×10^5 CFU/ml live APEC O78
Experimental: (§5) FIG. 9A-9C—Antibacterial activity of CMAP27 derived peptides in vitro against an avian pathogenic Escherichia coli O78 (APEC O78) field isolate. A) Antibacterial activity of peptides (5 μM) against APEC O78 (2×10^6 CFU/ml) in 50% Mueller Hinton broth using colony count assays. B) Antibacterial activity of peptides (5 μM) against APEC O78 (3×10^5 CFU/ml) in DMEM containing 10% fetal calf serum (FCS) using colony count assays. C) TNFα production by J774.A1 cells (ELISA) after 2 h incubation at 37° C. with live or heat-killed APEC O78 (3×10^5 CFU/m) in DMEM/10% FCS, in the presence or absence of 5 μM peptide. Data represents means±SEM from 3 independent experiments.
Peptide-mediated inhibition of macrophage activation induced by live or heat-killed APEC O78, was examined using J774.A1 cells, a murine macrophage cell line. For this purpose, J774.A1 cells (150,000 cells/well) cultured in DMEM containing 10% FCS were exposed during 2 h at 37° C. to 3×10^5 CFU/ml APEC O78 with or without 5 μM peptide, after which supernatants were collected and used to determine TNFα production (ELISA).

HD11 cells [3] = assay: Neutralization of LPS-induced interleukin-1β transcription in HD11 cells (real time PCR); assay type: cell-based, chicken; conditions: 20 μM peptide pre-incubated with 50 ng/ml LPS; 4 h
Experimental: as §3
as §3, with “FIG. 12A-12B—Substitution” for “FIG. 11A-11B—Neutralization”, “of phenylalanine residues by tryptophan enhances the” for “of lipopolysaccharide-induced interleukin-1β induction and nitric oxide production”, “in vitro LPS neutralization capacity of” for “in HD11 cells by”, “h or” for “h and”
as §4

HD11 cells [4] = assay: DNA-induced nitric oxide production in HD11 cells (Griess assay); assay type: cell-based, chicken; conditions: 5 μM peptide; 2.5 nM ODN-2006; 17 h
Experimental: as §1, §2

[5] = test system: avian pathogenic Escherichia coli O78 (APEC O78) field isolate; assay: Antibacterial colony count assay in DMEM containing 10% fetal calf serum; assay type: cell-based; conditions: 5 μM peptide, 3×10^5 CFU/ml, 2 h at 37° C., DMEM/10% FCS
Experimental: as §5
To test if peptides would be able to inhibit bacteria under more challenging conditions, e.g. in the presence of salts and serum proteins, APEC O78 was incubated with peptide in DMEM medium containing 10% fetal calf serum. In brief, bacterial survival was estimated by incubating 3×10^5 CFU/ml APEC O78 during 2 h at 37° C. in DMEM/10% FCS in the presence or absence of 5 μM peptide, after which serial dilutions were made, spread on agar media and colonies were enumerated after 24 h incubation at 37° C.

HD11 cells [6] = assay: Chemokine induction in HD11 cells (real time PCR); assay type: cell-based, chicken; conditions: 20 μM peptide
Experimental: FIG. 10—Chemokine induction by CMAP27 derived peptides in HD11 cells. HD11 cells were seeded in 96 wells tissue culture treated plates (2×10^5 cell/mL) in RPMI-1640/10% FCS and incubated at 37° C. (5% CO2) with peptide (20 μM) supplemented medium during 4 h (open bars) or 24 h (closed bars). Transcription levels of interleukin-1β, IL-8 (CXCLi2), monocyte chemotactic protein-3 (MCP-3) and RANTES (CCLi4) were determined by real time PCR. Significance levels: *P<0.05, **P<0.01, ***P<0.001. Data represents means±SEM from 3-4 independent experiments.
HD11 cells, a chicken macrophage cell line, were seeded in 96 wells tissue culture treated plates (2×10^5 cell/mL) in RPMI-1640/10% FCS and incubated at 37° C. (5% CO2) with peptide (20 μM) supplemented medium during 4 h or 24 h. Transcription levels of interleukin-1β, -8 (CXCLi2), monocyte chemotactic protein-3 (MCP-3) and RANTES (CCLi4) were determined by real time PCR.

Row | Substance | uptake of ODN-2006 by HD11 cells (HD11 cells [1]) | LPS-induced NO production blocked (HD11 cells [2]) | inhibition of TNFα production induced by heat-killed bacteria (J774.A1 cells) | inhibition of TNFα production induced by live bacteria (J774.A1 cells) | LPS-induced IL-1β expression blocked (HD11 cells [3]) | DNA-induced nitric oxide production (HD11 cells [4]) | inhibition of bacterial growth (antibacterial activity, in words) [5] | induction of CXCLi2/IL-8 transcription (HD11 cells [6]; 4 h or 24 h) | induction of MCP-3 transcription (HD11 cells [6]; 4 h or 24 h) | LPS-neutralizing activity (block of LPS-induced IL-1β expression, in words) (HD11 cells [3]) | induction of proinflammatory cytokine IL-1β transcription (HD11 cells [6]; 4 h or 24 h) | induction of CCLi4/RANTES transcription (HD11 cells [6]; prolonged stimulation (24 h) needed) | surviving bacteria ([5]; detection limit)
1 | CMAP1-21-NH2: C-terminally truncated CMAP27 derivative, residues 1-21 | enhanced the uptake | 78.9% | substantially inhibited | substantially inhibited | 93.5% | increasing | substantially inhibited | – | – | – | – | – | –
2 | CMAP4-21-NH2: N-terminally truncated variant of CMAP1-21 (RFLRKIRRFRPKVTITIQ-NH2) | enhanced the uptake | 51% | – | – | 80.5% | increasing | substantially inhibited | – | – | – | – | – | –
3 | CMAP7-21-NH2: N-terminally truncated variant of CMAP1-21, 15 amino acid residues (RKIRRFRPKVTITIQ-NH2) | enhanced the uptake | – | inhibited to some extent | – | – | increasing | lacking antibacterial activity | maintained a capacity to induce | maintained a capacity to induce | lack LPS-neutralizing activity | – | – | –
4 | RFGRFLRKIRRFRPKVTITIQGSARF-NH2 [CMAP1-26-NH2] | enhanced the uptake | 96.2% | substantially inhibited | substantially inhibited | 90.8% | increasing | substantially inhibited | induce transcription | induce transcription | – | not induced | induce transcription | < 100 cells/ml
